Read-outs that look alike come from different tables or passages of the source. Starred links: 1 amine or outer side, 2 acyl side, 3 side chain; linkers in the order of their positions; H or OH if unused. Non-standard residues stand in square brackets, D forms with d. Residues, ends and D or L forms follow the SMILES beside them. ξ: configuration not given here. *: point of attachment. dBip = N[C@H](Cc1ccc(-c2ccccc2)cc1)C(=O)O; Oic = O=C(O)[C@@H]1C[C@@H]2CCCC[C@@H]2N1; Phe(4-Cl) = N[C@@H](Cc1ccc(Cl)cc1)C(=O)O; Phe(4-I) = N[C@@H](Cc1ccc(I)cc1)C(=O)O; γGlu = O=C(O)[C@H](CCC(=O)[*:2])N[*:1]; d(β3hF) = N[C@@H](CC(=O)O)Cc1ccccc1; NMeR = CN[C@@H](CCCNC(=N)N)C(=O)O; Palmitoyl = CCCCCCCCCCCCCCCC(=O)*; Tridecanoyl = CCCCCCCCCCCCC(=O)*; hArg = N=C(N)NCCCC[C@H](N)C(=O)O; Cha = N[C@@H](CC1CCCCC1)C(=O)O; NMeL = CN[C@@H](CC(C)C)C(=O)O; αMeL = CC(C)C[C@](C)(N)C(=O)O; αMeP = C[C@@]1(C(=O)O)CCCN1; ξαMeL = CC(C)CC(C)(N)C(=O)O; Nle = CCCC[C@H](N)C(=O)O; ξαMeP = CC1(C(=O)O)CCCN1; ξβ3hV = CC(C)C(N)CC(=O)O; AEEA = NCCOCCOCC(=O)O; Aib = CC(C)(N)C(=O)O
Experiments:
[1] = target: T1, rat APJ receptor (Rattus norvegicus, UniProt Q9JHG3); assay: [35S] GTPγS assay, rat APJ receptor; type: biochemical
T1 construct: expressed in transfected cells
T1 sequence (Q9JHG3 1-377): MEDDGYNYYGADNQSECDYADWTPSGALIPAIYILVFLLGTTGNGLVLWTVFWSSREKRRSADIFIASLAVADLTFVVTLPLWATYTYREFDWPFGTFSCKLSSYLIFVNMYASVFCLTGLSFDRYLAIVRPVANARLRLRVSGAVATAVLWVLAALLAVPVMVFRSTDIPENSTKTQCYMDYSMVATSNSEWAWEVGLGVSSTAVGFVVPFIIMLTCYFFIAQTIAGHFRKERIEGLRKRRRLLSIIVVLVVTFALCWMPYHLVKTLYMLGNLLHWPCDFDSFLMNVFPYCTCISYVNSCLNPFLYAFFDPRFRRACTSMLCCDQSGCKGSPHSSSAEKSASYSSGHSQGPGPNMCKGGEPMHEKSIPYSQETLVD
Method: The membranes were incubated with modified peptides in the assay buffer. […] Bound [^35S] GTPγS was separated from free radiolabel by filtration. The filter bound radioactivity was determined by liquid scintillation counting.

[2] = target: T2, human APJ receptor (Homo sapiens, UniProt P35414); assay: [35S] GTPγS assay, human APJ receptor; type: biochemical
T2 construct: expressed in transfected cells
T2 sequence (P35414 1-380): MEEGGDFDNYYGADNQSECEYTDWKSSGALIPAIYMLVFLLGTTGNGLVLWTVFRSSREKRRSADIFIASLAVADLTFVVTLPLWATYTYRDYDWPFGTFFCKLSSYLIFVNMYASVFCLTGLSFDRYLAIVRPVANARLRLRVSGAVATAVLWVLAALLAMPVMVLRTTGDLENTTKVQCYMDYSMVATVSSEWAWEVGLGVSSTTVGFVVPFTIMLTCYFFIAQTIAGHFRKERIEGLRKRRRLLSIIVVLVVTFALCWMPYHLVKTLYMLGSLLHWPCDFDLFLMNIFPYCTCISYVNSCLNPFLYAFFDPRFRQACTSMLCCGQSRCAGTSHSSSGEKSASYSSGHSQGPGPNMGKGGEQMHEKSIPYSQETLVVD

[3] = In vitro stability in rat kidney homogenate; type: in vitro ADME; details: rat, tissue homogenate
Procedure, shortened: (§1)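 Apelin peptides were spiked at 5 μM final into rat plasma, liver homogenate or kidney homogenate and incubated at 37° C. for up to 4 hr. Aliquots were quenched with MeOH containing internal standard, centrifuged, and supernatants analyzed by high resolution LC-MS.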

[4] = In vitro stability in rat plasma; type: in vitro ADME
Procedure, shortened: as §1

[5] = In vitro stability in rat liver homogenate; type: in vitro ADME; details: tissue homogenate
Procedure, shortened: as §1

[6] = rat APJ receptor, read-out: EC50 Rat APJ Receptor

EC50 [1, 6] [nM] | EC50 ([2]; human APJ receptor) [nM] | remaining at 4 h, 5 μM [3] [%] | remaining at 4 h, 5 μM [4] [%] | remaining at 4 h, 5 μM [5] [%] | EC50 ([2]; Table 16) [nM] | EC50 ([1]; Table 16, read-out: EC50 Rat APJ Receptor) [nM] | Structure (SMILES)
10.3 | 1.25 | 9 | 90 | 11 | – | – | CCCCCCCCCCCCCCCC(=O)N[C@@H](CCC(=O)NCCOCCOCC(=O)NCCOCCOCC(=O)N[C@H](CCC(N)=O)C(=O)N[C@@H](CCCCNC(=N)N)C(=O)N1CCC[C@H]1C(=O)N[C@H](CCCNC(=N)N)C(=O)N[C@@H](CC1CCCCC1)C(=O)N[C@@H](CO)C(=O)N[C@@H](Cc1c[nH]cn1)C(=O)N[C@@H](CCCCN)C(=O)NCC(=O)N1[C@H](C(=O)N[C@@H](CCCC)C(=O)N2CCC[C@H]2C(=O)N[C@@H](CC(=O)O)Cc2ccccc2)C[C@@H]2CCCC[C@@H]21)C(=O)O [compound 614] ({Palmitoyl-γGlu-AEEA-AEEA}-[dQ][hArg]P[dR][Cha]SHKG[Oic][Nle]P[d(β3hF)]-OH)
– | – | < 1 | > 90 | 5 | 2.02 | – | CCCCCCCCCCCCC(=O)N[C@@H](CCC(=O)NCCOCCOCC(=O)NCCOCCOCC(=O)N[C@H](CCC(N)=O)C(=O)N[C@@H](CCCNC(=N)N)C(=O)N1CCC[C@H]1C(=O)N[C@@H](CCC(=O)O)C(=O)N[C@@H](CC1CCCCC1)C(=O)N[C@@H](CO)C(=O)N[C@@H](Cc1c[nH]cn1)C(=O)N[C@@H](CCCCN)C(=O)NCC(=O)N1[C@H](C(=O)N[C@@H](CCCC)C(=O)NC(C)(C)C(=O)N[C@@H](Cc2ccc(Cl)cc2)C(=O)O)C[C@@H]2CCCC[C@@H]21)C(=O)O [compound 526] ({Tridecanoyl-γGlu-AEEA-AEEA}-[dQ]RPE[Cha]SHKG[Oic][Nle][Aib][Phe(4-Cl)]-OH)
0.189 | 0.159 | 7.58 | 27.9 | < 1 | – | – | CCCC[C@H](NC(=O)[C@@H]1C[C@@H]2CCCC[C@@H]2N1C(=O)CNC(=O)[C@H](CCCCN)NC(=O)[C@H](Cc1c[nH]cn1)NC(=O)[C@H](CO)NC(=O)[C@H](CC1CCCCC1)NC(=O)[C@H](CCCNC(=N)N)N(C)C(=O)[C@@H]1CCCN1C(=O)[C@H](CCCCNC(=N)N)NC(=O)[C@H](CCC(N)=O)NC(C)=O)C(=O)N1CCC[C@H]1C(=O)N[C@@H](Cc1ccc(Cl)cc1)C(=O)O [compound 61] (Ac-Q[hArg]P[NMeR][Cha]SHKG[Oic][Nle]P[Phe(4-Cl)]-OH)
– | – | 4 | 58 | 6 | 0.0934 | – | CCCCCCCCCCCCC(=O)N[C@@H](CCC(=O)NCCOCCOCC(=O)NCCOCCOCC(=O)N[C@H](CCC(N)=O)C(=O)N[C@@H](CCCNC(=N)N)C(=O)N1CCC[C@H]1C(=O)N(C)[C@@H](CCCNC(=N)N)C(=O)N[C@@](C)(CC(C)C)C(=O)N[C@@H](CO)C(=O)N[C@@H](Cc1c[nH]cn1)C(=O)N[C@@H](CCCCN)C(=O)NCC(=O)N1[C@H](C(=O)N[C@@H](CCCC)C(=O)N2CCC[C@H]2C(=O)N[C@@H](Cc2ccc(Cl)cc2)C(=O)O)C[C@@H]2CCCC[C@@H]21)C(=O)O [compound 386] ({Tridecanoyl-γGlu-AEEA-AEEA}-[dQ]RP[NMeR][αMeL]SHKG[Oic][Nle]P[Phe(4-Cl)]-OH)
– | – | 8 | > 90 | < 1 | 0.147 | 0.253 | CCCCCCCCCCCCC(=O)N[C@@H](CCC(=O)NCCOCCOCC(=O)NCCOCCOCC(=O)N[C@@H](CCC(N)=O)C(=O)N[C@@H](CCCNC(=N)N)C(=O)N1CCC[C@H]1C(=O)N(C)[C@@H](CCCNC(=N)N)C(=O)N[C@@H](CC1CCCCC1)C(=O)N[C@@H](CO)C(=O)N[C@@H](Cc1c[nH]cn1)C(=O)N[C@@H](CCCCN)C(=O)NCC(=O)N1CCC[C@@]1(C)C(=O)N[C@@H](CCCC)C(=O)N1CCC[C@H]1C(=O)N[C@@H](Cc1ccc(Cl)cc1)C(=O)O)C(=O)O [compound 418] ({Tridecanoyl-γGlu-AEEA-AEEA}-QRP[NMeR][Cha]SHKG[αMeP][Nle]P[Phe(4-Cl)]-OH)

Further lines, the compound ahead of its results:

Structure (SMILES) | EC50 [1, 6] [nM] | EC50 ([2]; human APJ receptor) [nM] | remaining at 4 h, 5 μM [3] [%] | remaining at 4 h, 5 μM [4] [%] | remaining at 4 h, 5 μM [5] [%] | EC50 ([2]; Table 16) [nM] | EC50 ([1]; Table 16, read-out: EC50 Rat APJ Receptor) [nM]
CCCCCCCCCCCCC(=O)N[C@@H](CCC(=O)NCCOCCOCC(=O)NCCOCCOCC(=O)NC(CC(=O)N[C@@H](CCCNC(=N)N)C(=O)N1CCC[C@H]1C(=O)N(C)[C@@H](CCCNC(=N)N)C(=O)NC(C)(CC(C)C)C(=O)N[C@@H](CO)C(=O)N[C@@H](Cc1c[nH]cn1)C(=O)N[C@@H](CCCCN)C(=O)NCC(=O)N1[C@H](C(=O)N[C@@H](CCCC)C(=O)N2CCC[C@H]2C(=O)N[C@@H](Cc2ccc(Cl)cc2)C(=O)O)C[C@@H]2CCCC[C@@H]21)C(C)C)C(=O)O (stereo partly drawn) [compound 374] ({Tridecanoyl-γGlu-AEEA-AEEA}-[ξβ3hV]RP[NMeR][ξαMeL]SHKG[Oic][Nle]P[Phe(4-Cl)]-OH) | 0.503 | 0.305 | 89 | 66 | 11 | – | –
CCCCCCCCCCCCC(=O)N[C@@H](CCC(=O)NCCOCCOCC(=O)NCCOCCOCC(=O)N[C@@H](CCC(N)=O)C(=O)N[C@@H](CCCNC(=N)N)C(=O)N1CCC[C@H]1C(=O)N[C@@H](CCC(=O)O)C(=O)N[C@@H](CC(C)C)C(=O)N[C@@H](CO)C(=O)N[C@@H](Cc1c[nH]cn1)C(=O)N[C@@H](CCCCN)C(=O)NCC(=O)N1CCC[C@H]1C(=O)N[C@@H](CCCC)C(=O)N1CCC[C@H]1C(=O)N[C@@H](Cc1ccc(Cl)cc1)C(=O)O)C(=O)O [compound 477] ({Tridecanoyl-γGlu-AEEA-AEEA}-QRPELSHKGP[Nle]P[Phe(4-Cl)]-OH) | – | – | 2 | 64 | < 1 | 0.423 | –
CCCCCCCCCCCCC(=O)N[C@@H](CCC(=O)NCCOCCOCC(=O)NCCOCCOCC(=O)NC(CC(=O)N[C@@H](CCCNC(=N)N)C(=O)N1CCCC1(C)C(=O)N[C@@H](CCCCNC(=N)N)C(=O)NC(C)(CC(C)C)C(=O)N[C@@H](CO)C(=O)N[C@@H](Cc1c[nH]cn1)C(=O)N[C@@H](CCCCN)C(=O)NCC(=O)N1[C@H](C(=O)N[C@@H](CCCC)C(=O)N2CCCC2(C)C(=O)N[C@@H](Cc2ccc(Cl)cc2)C(=O)O)C[C@@H]2CCCC[C@@H]21)C(C)C)C(=O)O (stereo partly drawn) [compound 552] ({Tridecanoyl-γGlu-AEEA-AEEA}-[ξβ3hV]R[ξαMeP][hArg][ξαMeL]SHKG[Oic][Nle][ξαMeP][Phe(4-Cl)]-OH) | – | 1.95 | 18 | > 90 | 40 | – | –
CCCCCCCCCCCCC(=O)N[C@@H](CCC(=O)NCCOCCOCC(=O)NCCOCCOCC(=O)N[C@@H](CCC(N)=O)C(=O)N[C@@H](CCCNC(=N)N)C(=O)N1CCC[C@H]1C(=O)N(C)[C@@H](CCCNC(=N)N)C(=O)N[C@@](C)(CC(C)C)C(=O)N[C@@H](CO)C(=O)N[C@@H](Cc1c[nH]cn1)C(=O)N[C@@H](CCCCN)C(=O)NCC(=O)N1[C@H](C(=O)N[C@@H](CCCC)C(=O)N[C@@H](Cc2ccc(Cl)cc2)C(=O)O)C[C@@H]2CCCC[C@@H]21)C(=O)O [compound 389] ({Tridecanoyl-γGlu-AEEA-AEEA}-QRP[NMeR][αMeL]SHKG[Oic][Nle][Phe(4-Cl)]-OH) | – | – | 4 | < 1 | < 1 | 0.196 | –
CCCCCCCCCCCCC(=O)N[C@@H](CCC(=O)NCCOCCOCC(=O)NCCOCCOCC(=O)N[C@@H](CCCC)C(=O)N[C@H](CCCNC(=N)N)C(=O)N[C@@H](CCC(N)=O)C(=O)N[C@@H](CCCCNC(=N)N)C(=O)N1CCC[C@H]1C(=O)N[C@H](CCCNC(=N)N)C(=O)N(C)[C@@H](CC(C)C)C(=O)N[C@@H](C)C(=O)N[C@@H](Cc1c[nH]cn1)C(=O)N[C@@H](CCCCN)C(=O)NCC(=O)N1[C@H](C(=O)N[C@@H](Cc2ccc(I)cc2)C(=O)N2CCC[C@H]2C(=O)N[C@H](Cc2ccc(-c3ccccc3)cc2)C(=O)O)C[C@@H]2CCCC[C@@H]21)C(=O)O [compound 320] ({Tridecanoyl-γGlu-AEEA-AEEA}-[Nle][dR]Q[hArg]P[dR][NMeL]AHKG[Oic][Phe(4-I)]P[dBip]-OH) | – | 17.8 | 73.4 | > 90 | 86.5 | – | –
CCCCCCCCCCCCC(=O)N[C@@H](CCC(=O)NCCOCCOCC(=O)NCCOCCOCC(=O)N[C@@H](CCC(N)=O)C(=O)N[C@@H](CCCNC(=N)N)C(=O)N1CCC[C@H]1C(=O)N[C@@H](CCCCNC(=N)N)C(=O)N[C@@](C)(CC(C)C)C(=O)N[C@@H](CO)C(=O)N[C@@H](Cc1c[nH]cn1)C(=O)N[C@@H](CCCCN)C(=O)NCC(=O)N1[C@H](C(=O)N[C@@H](CCCC)C(=O)N2CCC[C@H]2C(=O)N[C@@H](Cc2ccc(Cl)cc2)C(=O)O)C[C@@H]2CCCC[C@@H]21)C(=O)O [compound 360] ({Tridecanoyl-γGlu-AEEA-AEEA}-QRP[hArg][αMeL]SHKG[Oic][Nle]P[Phe(4-Cl)]-OH) | – | – | 2 | 81.5 | 2.5 | 0.0519 | –
